Data published in patent publication US10039740B2, “Therapeutic combinations of sesquiterpenes and flavonoids” (Primus Pharmaceuticals, Inc., priority 2015, dated 2018).

Columns and labels:
RAW267.4 cells [1] = test: Cell proliferation of RAW267.4 cells (cell counting); type: cell-based, mouse; details: cultured 3 days; for proliferation of RAW267.4 cells: p<0.001 vs control; for effect on RAW267.4 cells (proliferation): 1, 10, 50, 100, and 200 μg/ml, FIG. 4, FIG. 5
Method: Various experiments were conducted to determine effects of various active ingredients on RAW 267.4 in vitro. RAW267.4 cells refer to a mouse macrophage that produces various inflammatory cytokines including TNF-α and IL-1β. RAW267.4 cells may be prepared as 1×10^5/ml per well. These cells were cultured using a 24-well plate in DMEM containing 10% FBS and 1% P/S for 1, 2, 3 or 7 days in a water-saturated atmosphere containing 5% CO2 and 95% air at 37° C. RAW267.4 cells were cultured DMEM containing 10% FBS and 1% P/S in the presence of β-caryophyllene [1 (5 μM), 10, 50, 100 or 200 μg/ml of medium], baicalin [1 (2.24 μM), 10, 50, 100 or 200 μg/ml of medium], (+)-catechin [1 (3.45 μM), 10, 50, 100 or 200 μg/ml of medium], curcumin [1 (2.72 μM), 10, 50, 100 or 200 μg/ml of medium], or (+)-aromatic turmerone [1 (4.62 μM), 5, 10, 25 or 50 μg/ml of medium] for 3 days. After culture, cells were detached from each culture dish and counted. After trypsinization of each culture dish using 0.2% […] plus 0.02% EDTA in Ca^2+/Mg^2+-free PBS for 2 min at 37° C., detached cells from the dish were collected after centrifugation. Cells were resuspended in PBS solution and stained with eosin. Cell numbers were counted under a microscope using a Hemocytometer plate. Each dish was counted twice, and an average of two counts was calculated. Cell number was shown as number per well of plate. Statistical significance was determined using GraphPad InStat version 3 for Windows XP (GraphPad Software Inc. La Jolla, Calif.). Multiple comparisons were performed by one-way analysis of variance (ANOVA) with Tukey-Kramer multiple comparisons post test for parametric data as indicated. P<0.05 was considered statistically significant. The cells were cultured for 3 days in the presence of one or more various compounds to determine their anti-inflammatory effects.

RAW267.4 cells [2] = test: Cell death of RAW267.4 cells (cell number after confluence); type: cell-based, mouse; details: for death of RAW267.4 cells in vitro: conclusion from the cell death experiments
Method: RAW267.4 cells (1×10^5/ml per well) were cultured using a 24-well plate in DMEM containing 10% FBS and 1% P/S for 3 days until reaching confluence, and then the cells were cultured another for 2 days in the presence or absence of β-caryophyllene (1 or 10 μg/ml of medium) and/or baicalin or (+)-catechin (1 or 10 μg/ml of medium). After culture, cells were detached from each culture dish. After trypsinization of each culture dish using 0.2% […] plus 0.02% EDTA in Ca^2+/Mg^2+-free PBS for 2 min at 37° C., detached cells from the dish were collected after centrifugation. Cells were resuspended in PBS solution and stained with eosin. Cell numbers were counted under a microscope using a Hemocytometer plate. Each dish was counted twice, and an average of two counts was calculated. Cell number was shown as number per well of plate. Statistical significance was determined using GraphPad InStat version 3 for Windows XP (GraphPad Software Inc. La Jolla, Calif.). Multiple comparisons were performed by one-way analysis of variance (ANOVA) with Tukey-Kramer multiple comparisons post test for parametric data as indicated. P<0.05 was considered statistically significant.

| Compound | effect on RAW267.4 cells (proliferation) (RAW267.4 cells [1]) | death of RAW267.4 cells in vitro (RAW267.4 cells [2]) | other results |
| --- | --- | --- | --- |
| CC(C)=CC(=O)C[C@H](C)c1ccc(C)cc1 [(+)-aromatic turmerone, reference compound] |  |  | proliferation of RAW267.4 cells (RAW267.4 cells [1]; 25 and 50 μg/ml, FIG. 3): significantly increased |
| O=C(O)[C@H]1O[C@@H](Oc2cc3oc(-c4ccccc4)cc(=O)c3c(O)c2O)[C@H](O)[C@@H](O)[C@@H]1O [baicalin] | did not result in a significant effect | do not have significant effects |  |
| Oc1cc(O)c2c(c1)O[C@H](c1ccc(O)c(O)c1)[C@@H](O)C2 [(+)-catechin] | did not result in a significant effect | do not have significant effects |  |
| COc1cc(/C=C/C(=O)CC(=O)/C=C/c2ccc(O)c(OC)c2)ccc1O [curcumin, reference compound] |  |  | proliferation of RAW267.4 cells (RAW267.4 cells [1]; 100 and 200 μg/ml, FIG. 2): suppressed |
| C=C1CC/C=C(\C)CC[C@@H]2[C@@H]1CC2(C)C [β-caryophyllene] |  | do not have significant effects | suppressive effect on cell proliferation (RAW267.4 cells [1]; 1 or 10 μg/ml of each compound, FIG. 6, 7, 8, 10): did not result any significant suppressive effect; proliferation of RAW267.4 cells (RAW267.4 cells [1]; 50, 100, and 200 μg/ml of medium, FIG. 1): suppressed; number of RAW267.4 cells (cell death) (RAW267.4 cells [2]; 3 days without chemicals, then 2 days with compound(s) at about 1 or 10 μg/ml of medium, FIG. 13): did not induce a significant decrease |
